Measured values taken from patent US5672715A, “Herbicidal substituted 3-aryl-pyrazoles” (Monsanto Company, priority 1995, dated 1997).

Experiments:
Format in all cases: in vivo
Birdseye Speedwell [1] = assay: post-emergence herbicide test; conditions: post-emergence, 0.25 lb/A; read-out: % plant inhibition
Method in brief: (§1)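 Sown pans kept on a greenhouse bench with irrigation or subirrigation until plants reached two to three weeks, then sprayed at 170.3 kPa (10 psig). Spray mix held about 0.4% by volume emulsifier; total volume 1870 L/Ha. Result expressed as percent inhibition.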

Blackgrass [2] = assay: post-emergence herbicide test; conditions: Alopecurus myosuroides, post-emergence, 0.25 lb/A; read-out: % plant inhibition
Method in brief: as §1

Barnyardgrass [3] = assay: post-emergence herbicide test; conditions: Echinochloa crus-galli, post-emergence, 0.25 lb/A; read-out: % plant inhibition
Method in brief: as §1

Cocklebur [4] = assay: post-emergence herbicide test; conditions: Xanthium strumarium, post-emergence, 0.25 lb/A; read-out: % plant inhibition
Method in brief: as §1

Velvetleaf [5] = assay: post-emergence herbicide test; conditions: Abutilon theophrasti, post-emergence, 0.25 lb/A; read-out: % plant inhibition
Method in brief: as §1

Soybean [6] = assay: post-emergence herbicide test; conditions: Glycine max, post-emergence, 0.25 lb/A; read-out: % plant inhibition
Method in brief: as §1

Wild Oats [7] = assay: post-emergence herbicide test; conditions: Avena fatua, post-emergence, 0.25 lb/A; read-out: % plant inhibition
Method in brief: as §1

Bedstraw Catchweed [8] = assay: post-emergence herbicide test; conditions: Galium aparine, post-emergence, 0.25 lb/A; read-out: % plant inhibition
Method in brief: as §1

Corn [9] = assay: post-emergence herbicide test; conditions: Zea mays, post-emergence, 0.25 lb/A; read-out: % plant inhibition
Method in brief: as §1

Rape [10] = assay: post-emergence herbicide test; conditions: post-emergence, 0.25 lb/A; read-out: % plant inhibition
Method in brief: as §1

Common Chickweed [11] = assay: post-emergence herbicide test; conditions: post-emergence, 0.25 lb/A; read-out: % plant inhibition
Method in brief: as §1

Morning Glory [12] = assay: post-emergence herbicide test; conditions: Ipomoea, post-emergence, 0.25 lb/A; read-out: % plant inhibition
Method in brief: as §1

Green Foxtail [13] = assay: post-emergence herbicide test; conditions: Setaria viridis, post-emergence, 0.25 lb/A; read-out: % plant inhibition
Method in brief: as §1

Wheat [14] = assay: post-emergence herbicide test; conditions: Triticum aestivum, post-emergence, 0.25 lb/A; read-out: % plant inhibition
Method in brief: as §1

Downy Brome [15] = assay: post-emergence herbicide test; conditions: Bromus tectorum, post-emergence, 0.25 lb/A; read-out: % plant inhibition
Method in brief: as §1

Seedling Johnsongrass [16] = assay: post-emergence herbicide test; conditions: Sorghum halepense, post-emergence, 0.25 lb/A; read-out: % plant inhibition
Method in brief: as §1

Giant Foxtail [17] = assay: post-emergence herbicide test; conditions: Setaria faberi, post-emergence, 0.25 lb/A; read-out: % plant inhibition
Method in brief: as §1

Birdseye Speedwell [18] = assay: pre-emergence herbicide test; conditions: pre-emergence, 0.25 lb/A; read-out: % plant inhibition
Method in brief: (§2)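 Pans of compacted topsoil received seeds and then a cover layer treated with test compound from an acetone or water carrier. Plants grew under greenhouse conditions with moisture supplied from below. Observations of % inhibition followed roughly 14 days after treatment.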

Blackgrass [19] = assay: pre-emergence herbicide test; conditions: Alopecurus myosuroides, pre-emergence, 0.25 lb/A; read-out: % plant inhibition
Method in brief: as §2

Barnyardgrass [20] = assay: pre-emergence herbicide test; conditions: Echinochloa crus-galli, pre-emergence, 0.25 lb/A; read-out: % plant inhibition
Method in brief: as §2

Cocklebur [21] = assay: pre-emergence herbicide test; conditions: Xanthium strumarium, pre-emergence, 0.25 lb/A; read-out: % plant inhibition
Method in brief: as §2

Velvetleaf [22] = assay: pre-emergence herbicide test; conditions: Abutilon theophrasti, pre-emergence, 0.25 lb/A; read-out: % plant inhibition
Method in brief: as §2

Soybean [23] = assay: pre-emergence herbicide test; conditions: Glycine max, pre-emergence, 0.25 lb/A; read-out: % plant inhibition
Method in brief: as §2

Wild Oats [24] = assay: pre-emergence herbicide test; conditions: Avena fatua, pre-emergence, 0.25 lb/A; read-out: % plant inhibition
Method in brief: as §2

Bedstraw Catchweed [25] = assay: pre-emergence herbicide test; conditions: Galium aparine, pre-emergence, 0.25 lb/A; read-out: % plant inhibition
Method in brief: as §2

Corn [26] = assay: pre-emergence herbicide test; conditions: Zea mays, pre-emergence, 0.25 lb/A; read-out: % plant inhibition
Method in brief: as §2

Rape [27] = assay: pre-emergence herbicide test; conditions: pre-emergence, 0.25 lb/A; read-out: % plant inhibition
Method in brief: as §2

Common Chickweed [28] = assay: pre-emergence herbicide test; conditions: pre-emergence, 0.25 lb/A; read-out: % plant inhibition
Method in brief: as §2

Morning Glory [29] = assay: pre-emergence herbicide test; conditions: Ipomoea, pre-emergence, 0.25 lb/A; read-out: % plant inhibition
Method in brief: as §2

Green Foxtail [30] = assay: pre-emergence herbicide test; conditions: Setaria viridis, pre-emergence; 0.25 lb/A; read-out: % plant inhibition
Method in brief: as §2

Wheat [31] = assay: pre-emergence herbicide test; conditions: Triticum aestivum, pre-emergence, 0.25 lb/A; read-out: % plant inhibition
Method in brief: as §2

Downy Brome [32] = assay: pre-emergence herbicide test; conditions: Bromus tectorum, pre-emergence, 0.25 lb/A; read-out: % plant inhibition
Method in brief: as §2

Seedling Johnsongrass [33] = assay: pre-emergence herbicide test; conditions: Sorghum halepense, pre-emergence, 0.25 lb/A; read-out: % plant inhibition
Method in brief: as §2

Giant Foxtail [34] = assay: pre-emergence herbicide test; conditions: Setaria faberi, pre-emergence, 0.25 lb/A; read-out: % plant inhibition
Method in brief: as §2

| Structure (SMILES) | inhibition at 280.212 g/ha (Birdseye Speedwell [1]) [%] | inhibition at 280.212 g/ha (Blackgrass [2]) [%] | inhibition at 280.212 g/ha (Barnyardgrass [3]) [%] | inhibition at 280.212 g/ha (Cocklebur [4]) [%] | inhibition at 280.212 g/ha (Velvetleaf [5]) [%] | inhibition at 280.212 g/ha (Soybean [6]) [%] | inhibition at 280.212 g/ha (Wild Oats [7]) [%] | inhibition at 280.212 g/ha (Bedstraw Catchweed [8]) [%] | inhibition at 280.212 g/ha (Corn [9]) [%] | inhibition at 280.212 g/ha (Rape [10]) [%] | inhibition at 280.212 g/ha (Common Chickweed [11]) [%] | inhibition at 280.212 g/ha (Morning Glory [12]) [%] | inhibition at 280.212 g/ha (Green Foxtail [13]) [%] | inhibition at 280.212 g/ha (Wheat [14]) [%] | inhibition at 280.212 g/ha (Downy Brome [15]) [%] | inhibition at 280.212 g/ha (Seedling Johnsongrass [16]) [%] | inhibition at 280.212 g/ha (Giant Foxtail [17]) [%] | inhibition at 280.212 g/ha (Birdseye Speedwell [18]) [%] | inhibition at 280.212 g/ha (Blackgrass [19]) [%] | inhibition at 280.212 g/ha (Barnyardgrass [20]) [%] | other results |
| --- | --- | --- | --- | --- | --- | --- | --- | --- | --- | --- | --- | --- | --- | --- | --- | --- | --- | --- | --- | --- | --- |
| C#CCOC(=O)c1cc(-c2nn(C)c(C(F)(F)F)c2C)c(F)cc1Cl [Compound 42] | 95 | 20 | 65 | 85 | 98 | 10 | 20 | 100 | 25 | 40 | 95 | 70 | 40 | 15 | 30 | 45 | 0 | 30 | 15 | 35 | inhibition at 280.212 g/ha (Cocklebur [21]): 65%; inhibition at 280.212 g/ha (Velvetleaf [22]): 65%; inhibition at 280.212 g/ha (Soybean [23]): 0%; inhibition at 280.212 g/ha (Wild Oats [24]): 5%; inhibition at 280.212 g/ha (Bedstraw Catchweed [25]): 80%; inhibition at 280.212 g/ha (Corn [26]): 5%; inhibition at 280.212 g/ha (Rape [27]): 5%; inhibition at 280.212 g/ha (Common Chickweed [28]): 40%; inhibition at 280.212 g/ha (Morning Glory [29]): 60%; inhibition at 280.212 g/ha (Green Foxtail [30]): 95%; inhibition at 280.212 g/ha (Wheat [31]): 0%; inhibition at 280.212 g/ha (Downy Brome [32]): 10%; inhibition at 280.212 g/ha (Seedling Johnsongrass [33]): 0%; inhibition at 280.212 g/ha (Giant Foxtail [34]): 0% |
| Cc1c(-c2cc(CS)c(Cl)cc2F)nn(C)c1C(F)(F)F [Compound 30] | 98 | 30 | 60 | 60 | 85 | 65 | 25 | 40 | 20 | 60 | 75 | 65 | 65 | 15 | 25 | 70 | 20 | 50 | 20 | 70 | inhibition at 280.212 g/ha (Cocklebur [21]): 25%; inhibition at 280.212 g/ha (Velvetleaf [22]): 90%; inhibition at 280.212 g/ha (Soybean [23]): 20%; inhibition at 280.212 g/ha (Wild Oats [24]): 0%; inhibition at 280.212 g/ha (Bedstraw Catchweed [25]): 40%; inhibition at 280.212 g/ha (Corn [26]): 15%; inhibition at 280.212 g/ha (Rape [27]): 5%; inhibition at 280.212 g/ha (Common Chickweed [28]): 35%; inhibition at 280.212 g/ha (Morning Glory [29]): 20%; inhibition at 280.212 g/ha (Green Foxtail [30]): 98%; inhibition at 280.212 g/ha (Wheat [31]): 0%; inhibition at 280.212 g/ha (Downy Brome [32]): 5%; inhibition at 280.212 g/ha (Seedling Johnsongrass [33]): 95%; inhibition at 280.212 g/ha (Giant Foxtail [34]): 25% |
| Cc1c(-c2cc(CSCC(C)C)c(Cl)cc2F)nn(C)c1C(F)(F)F [Compound 32] | 90 | 25 | 35 | 65 | 85 | 20 | 20 | 45 | 15 | 50 | 20 | 40 | 65 | 15 | 25 | 45 | 45 | 45 | 10 | 5 | inhibition at 280.212 g/ha (Cocklebur [21]): 25%; inhibition at 280.212 g/ha (Velvetleaf [22]): 25%; inhibition at 280.212 g/ha (Soybean [23]): 8%; inhibition at 280.212 g/ha (Wild Oats [24]): 0%; inhibition at 280.212 g/ha (Bedstraw Catchweed [25]): 5%; inhibition at 280.212 g/ha (Corn [26]): 5%; inhibition at 280.212 g/ha (Rape [27]): 5%; inhibition at 280.212 g/ha (Common Chickweed [28]): 5%; inhibition at 280.212 g/ha (Morning Glory [29]): 10%; inhibition at 280.212 g/ha (Green Foxtail [30]): 40%; inhibition at 280.212 g/ha (Wheat [31]): 0%; inhibition at 280.212 g/ha (Downy Brome [32]): 0%; inhibition at 280.212 g/ha (Seedling Johnsongrass [33]): 85%; inhibition at 280.212 g/ha (Giant Foxtail [34]): 65% |
| Cc1c(-c2cc(C(=O)OCSC#N)c(Cl)cc2F)nn(C)c1C(F)(F)F [Compound 50] | 75 | 5 | 5 | 60 | 90 | 7 | 10 | 35 | 5 | 15 | 60 | 35 | 25 | 10 | 10 | 0 | 0 | 35 | 5 | 25 | inhibition at 280.212 g/ha (Cocklebur [21]): 0%; inhibition at 280.212 g/ha (Velvetleaf [22]): 40%; inhibition at 280.212 g/ha (Soybean [23]): 0%; inhibition at 280.212 g/ha (Wild Oats [24]): 0%; inhibition at 280.212 g/ha (Bedstraw Catchweed [25]): 25%; inhibition at 280.212 g/ha (Corn [26]): 0%; inhibition at 280.212 g/ha (Rape [27]): 0%; inhibition at 280.212 g/ha (Common Chickweed [28]): 35%; inhibition at 280.212 g/ha (Morning Glory [29]): 0%; inhibition at 280.212 g/ha (Green Foxtail [30]): 10%; inhibition at 280.212 g/ha (Wheat [31]): 0%; inhibition at 280.212 g/ha (Downy Brome [32]): 5%; inhibition at 280.212 g/ha (Seedling Johnsongrass [33]): 0%; inhibition at 280.212 g/ha (Giant Foxtail [34]): 0% |
| Cn1nc(-c2cc(C(=O)O)c(Cl)cc2F)c(C=O)c1C(F)(F)F [Compound 3, 2-Chloro-4-fluoro-5-[4-formyl-1-methyl-5-(trifluoromethyl)-1H-pyrazol-3-yl]benzoic acid] | 75 | 0 | 0 | 65 | 85 | 15 | 5 | 15 | 2 | 10 | 25 | 25 | 10 | 8 | 0 | 0 | 0 | 0 | 5 | 15 | inhibition at 280.212 g/ha (Cocklebur [21]): 5%; inhibition at 280.212 g/ha (Velvetleaf [22]): 25%; inhibition at 280.212 g/ha (Soybean [23]): 20%; inhibition at 280.212 g/ha (Wild Oats [24]): 5%; inhibition at 280.212 g/ha (Bedstraw Catchweed [25]): 5%; inhibition at 280.212 g/ha (Corn [26]): 0%; inhibition at 280.212 g/ha (Rape [27]): 5%; inhibition at 280.212 g/ha (Common Chickweed [28]): 0%; inhibition at 280.212 g/ha (Morning Glory [29]): 60%; inhibition at 280.212 g/ha (Green Foxtail [30]): 30%; inhibition at 280.212 g/ha (Wheat [31]): 0%; inhibition at 280.212 g/ha (Downy Brome [32]): 0%; inhibition at 280.212 g/ha (Seedling Johnsongrass [33]): 25%; inhibition at 280.212 g/ha (Giant Foxtail [34]): 5% |
